These results are taken from ChEMBL document CHEMBL1128408, “Further evidence supporting the importance of and the restrictions on a carbon-centered radical for high antimalarial activity of 1,2,4-trioxanes like artemisinin” (J Med Chem, 1995).

The test relates to Plasmodium falciparum. The experiment in a line: In vitro inhibitory activity against Chloroquine-sensitive Plasmodium falciparum NF54 as [3H]hypoxanthine incorporation. It is filed as functional, organism-based.
Setting [1] is: Plasmodium falciparum, read-out: IC50.

In brackets after ≈: the same amount, converted by molar mass.

In turn, `CO[C@H]1O[C@@]2(C)CC[C@H]3CCC[C@@H](CCO)[C@]31OO2` showed an IC50 of 0.034 µg/mL (≈ 0.125 µM). For the same molecule, the IC50 under setting [1] was 0.034 µg/mL (≈ 0.125 µM).

`CO[C@H]1O[C@]2(C)OO[C@]13[C@H](CCO)CCC[C@@H]3C[C@@H]2C[Si](C)(C)C`: the IC50 under setting [1] was greater than 1 µg/mL.

Regarding `C[C@@H]1CC[C@H]2[C@@H](C)C(=O)O[C@@H]3O[C@@]4(C)CC[C@@H]1[C@]32OO4` [ARTEMISININ], under setting [1], the IC50 was 0.003 µg/mL (≈ 0.0106 µM).

As for `CO[C@H]1O[C@]2(C)OO[C@]13[C@H](CCO)CCC[C@@H]3C[C@H]2Cc1ccccc1`, the IC50 under setting [1] was 0.003 µg/mL (≈ 0.00828 µM).

As to `CO[C@H]1O[C@@]2(C)CC[C@H]3CCCC[C@]31OO2`, the IC50 under setting [1] worked out at 0.22 µg/mL (≈ 0.964 µM).

Consider `CO[C@H]1O[C@]2(C)OO[C@]13[C@H](CCO)CCC[C@@H]3C[C@H]2C[Si](C)(C)C`, for which the concentration for half-maximal inhibition (IC50) under setting [1] was 0.086 µg/mL (≈ 0.24 µM).

Take `CO[C@H]1O[C@]2(C)OO[C@]13[C@H](CCO)CCC[C@@H]3C[C@@H]2C`: the IC50 under setting [1] was found to be 0.36 µg/mL (≈ 1.26 µM).

Consider `CO[C@H]1O[C@]2(C)OO[C@]13CCCC[C@@H]3C[C@H]2Cc1ccccc1`, for which, under setting [1], the IC50 is 0.098 µg/mL (≈ 0.308 µM).

Turning to `CO[C@H]1O[C@]2(C)OO[C@]13[C@H](CCO)CCC[C@@H]3C[C@H]2C`, the concentration for half-maximal inhibition (IC50) under setting [1] stood at 0.0022 µg/mL (≈ 0.00768 µM).

Consider `CO[C@H]1O[C@]2(C)OO[C@]13[C@H](CCO)CCC[C@@H]3C[C@@H]2Cc1ccccc1`, for which, under setting [1], the IC50 stood at 0.6 µg/mL (≈ 1.66 µM).

For the molecule `CO[C@H]1O[C@]2(C)OO[C@]13CCCC[C@@H]3C[C@H]2c1ccccc1`, the IC50 under setting [1] was found to be 0.61 µg/mL (≈ 2 µM).

Usually IC50 stands for the concentration at which inhibition is half-maximal.
